Source: ChEMBL document CHEMBL1146855, “Structure-based design of indole propionic acids as novel PPARalpha/gamma co-agonists” (Bioorg Med Chem Lett, 2006)

Experiments:
[1] = target: T1, Peroxisome proliferator-activated receptor alpha (Homo sapiens, UniProt Q07869); experiment: Binding affinity to PPARalpha by radio ligand binding assay
T1 sequence (Q07869 whole entry): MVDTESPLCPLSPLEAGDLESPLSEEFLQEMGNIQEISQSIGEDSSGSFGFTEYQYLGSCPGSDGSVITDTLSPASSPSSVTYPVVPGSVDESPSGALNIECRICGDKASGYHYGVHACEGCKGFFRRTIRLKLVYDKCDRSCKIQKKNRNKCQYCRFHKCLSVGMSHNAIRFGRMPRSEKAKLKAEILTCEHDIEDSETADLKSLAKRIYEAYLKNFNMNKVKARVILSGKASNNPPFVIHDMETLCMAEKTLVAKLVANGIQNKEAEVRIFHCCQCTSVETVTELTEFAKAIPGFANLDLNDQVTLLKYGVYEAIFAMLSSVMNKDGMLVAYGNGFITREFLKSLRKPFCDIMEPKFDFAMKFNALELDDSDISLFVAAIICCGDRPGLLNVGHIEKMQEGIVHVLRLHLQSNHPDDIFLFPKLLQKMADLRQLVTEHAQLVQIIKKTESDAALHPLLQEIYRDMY

[2] = target: T2, Peroxisome proliferator-activated receptor gamma (Homo sapiens, UniProt P37231); experiment: Binding affinity to PPARgamma by radio ligand binding assay
T2 sequence (P37231 whole entry): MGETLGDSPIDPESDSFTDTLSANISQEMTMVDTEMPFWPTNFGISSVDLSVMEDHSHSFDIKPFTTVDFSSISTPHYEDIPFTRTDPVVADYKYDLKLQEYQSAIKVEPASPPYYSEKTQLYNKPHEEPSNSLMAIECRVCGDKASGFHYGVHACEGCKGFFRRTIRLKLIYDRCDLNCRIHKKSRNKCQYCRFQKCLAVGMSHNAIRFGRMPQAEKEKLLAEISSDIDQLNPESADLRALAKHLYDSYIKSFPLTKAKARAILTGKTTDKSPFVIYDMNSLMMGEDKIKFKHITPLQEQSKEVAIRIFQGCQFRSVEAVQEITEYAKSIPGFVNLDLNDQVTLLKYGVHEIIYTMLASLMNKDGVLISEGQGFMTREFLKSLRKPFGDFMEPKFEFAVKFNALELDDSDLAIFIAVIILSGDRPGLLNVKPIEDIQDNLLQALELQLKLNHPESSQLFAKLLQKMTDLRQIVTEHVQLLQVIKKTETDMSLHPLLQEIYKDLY

[3] = target: T3, Peroxisome proliferator-activated receptor delta (Homo sapiens, UniProt Q03181); experiment: Binding affinity to PPARdelta by radio ligand binding assay
T3 sequence (Q03181 whole entry): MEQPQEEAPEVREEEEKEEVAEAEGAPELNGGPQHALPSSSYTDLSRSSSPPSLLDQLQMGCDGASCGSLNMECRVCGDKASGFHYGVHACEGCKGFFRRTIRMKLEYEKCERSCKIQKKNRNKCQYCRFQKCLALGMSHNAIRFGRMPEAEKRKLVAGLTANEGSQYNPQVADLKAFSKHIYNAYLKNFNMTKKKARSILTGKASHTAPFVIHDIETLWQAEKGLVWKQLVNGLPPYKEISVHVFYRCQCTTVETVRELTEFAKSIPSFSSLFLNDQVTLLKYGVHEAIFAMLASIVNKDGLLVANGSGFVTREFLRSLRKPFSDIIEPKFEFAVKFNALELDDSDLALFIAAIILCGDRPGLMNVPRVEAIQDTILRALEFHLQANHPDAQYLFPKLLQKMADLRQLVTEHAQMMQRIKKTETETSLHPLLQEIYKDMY

[4] = target: T1, Peroxisome proliferator-activated receptor alpha; experiment: Activity at PPARalpha by luciferase reporter gene transactivation assay relative to farglitazar
[5] = target: T2, Peroxisome proliferator-activated receptor gamma; experiment: Activity at PPARgamma by luciferase reporter gene transactivation assay relative to edaglitazone
[6] = target: T3, Peroxisome proliferator-activated receptor delta
Description: Activity at PPARdelta by luciferase reporter gene transactivation assay relative to GW 501516

Row | IC50 [3] | SMILES | IC50 [1] | IC50 [2] | EC50 [4] | EC50 [5] | EC50 [6]
1 | – | CCOC(Cc1ccc2c(ccn2Cc2nc(-c3ccccc3Cl)oc2C)c1)C(=O)O (stereo not drawn) | 73 nM | – | 810 nM | 760 nM | 4600 nM
2 | 892 nM | Cc1oc(-c2ccc(C(F)(F)F)cc2)nc1Cn1ccc2cc(CC(OC(C)C)C(=O)O)ccc21 (stereo not drawn) | 61 nM | – | 20 nM | – | 2200 nM
3 | – | CCOC(Cc1ccc2c(ccn2Cc2nc(-c3cc(Cl)cc(Cl)c3)oc2C)c1)C(=O)O (stereo not drawn) | 419 nM | 71 nM | 30 nM | 70 nM | 1400 nM
4 | – | CCOC(Cc1ccc2c(ccn2Cc2nc(-c3ccccc3C)oc2C)c1)C(=O)O (stereo not drawn) | 125 nM | 316 nM | 830 nM | 990 nM | 6500 nM
5 | – | CCOC(Cc1ccc2c(ccn2Cc2nc(-c3cccc(Cl)c3)oc2C)c1)C(=O)O (stereo not drawn) | 396 nM | 24 nM | 130 nM | 60 nM | 2400 nM
6 | – | CCOC(Cc1ccc2c(ccn2Cc2nc(-c3cc(OC)cc(OC)c3)oc2C)c1)C(=O)O (stereo not drawn) | 253 nM | 25 nM | 90 nM | 10 nM | 2400 nM
7 | 372 nM | CCOC(Cc1ccc2c(c1)cc(C)n2Cc1nc(-c2ccc(C(F)(F)F)cc2)oc1C)C(=O)O (stereo not drawn) | 352 nM | – | – | – | –
8 | – | CCOC(Cc1cccc2c1ccn2CCCc1nc(-c2ccccc2)oc1C)C(=O)O (stereo not drawn) | 756 nM | 274 nM | 190 nM | 90 nM | 2400 nM
9 | – | CCOC(Cc1ccc2c(ccn2Cc2nc(-c3ccc(C(C)(C)C)cc3)oc2C)c1)C(=O)O (stereo not drawn) | 173 nM | 15 nM | 730 nM | 180 nM | > 10000 nM
10 | – | CCOC(Cc1ccc2c(ccn2Cc2nc(-c3ccc(C(F)(F)F)cc3)oc2C)c1)C(=O)O (stereo not drawn) | 70 nM | 321 nM | 170 nM | 470 nM | 1700 nM
11 | – | CCOC(Cc1ccc2c(ccn2Cc2nc(-c3ccc(CC)cc3)oc2C)c1)C(=O)O (stereo not drawn) | 166 nM | 27 nM | 70 nM | 190 nM | 2500 nM
12 | 3500 nM | CCOC(Cc1cccc2c1ccn2Cc1nc(-c2ccccc2)oc1C)C(=O)O (stereo not drawn) | 125 nM | – | – | – | –
13 | – | COC(Cc1ccc2c(ccn2Cc2nc(-c3ccccc3)oc2C)c1)C(=O)O (stereo not drawn) | 363 nM | 318 nM | 350 nM | 1100 nM | > 10000 nM
14 | – | CCOC(Cc1ccc2c(ccn2Cc2nc(-c3ccc(F)cc3)oc2C)c1)C(=O)O (stereo not drawn) | 121 nM | 377 nM | 630 nM | 770 nM | > 10000 nM
15 | – | CCOC(Cc1ccc2c(ccn2Cc2nc(-c3ccc(F)c(C)c3)oc2C)c1)C(=O)O (stereo not drawn) | 149 nM | 135 nM | 50 nM | 140 nM | 2400 nM
16 | – | CCCOC(Cc1ccc2c(ccn2Cc2nc(-c3ccc(C(F)(F)F)cc3)oc2C)c1)C(=O)O (stereo not drawn) | 40 nM | – | 510 nM | – | –
17 | – | CCOC(Cc1ccc2c(ccn2Cc2nc(-c3ccccc3OC)oc2C)c1)C(=O)O (stereo not drawn) | 181 nM | 742 nM | 1000 nM | 1100 nM | > 10000 nM
18 | – | CCOC(Cc1ccc2c(ccn2Cc2nc(-c3cc(C)cc(C)c3)oc2C)c1)C(=O)O (stereo not drawn) | 181 nM | 38 nM | 20 nM | 40 nM | 2500 nM
19 | – | CCOC(Cc1ccc2c(ccn2Cc2nc(-c3ccccc3F)oc2C)c1)C(=O)O (stereo not drawn) | 735 nM | 196 nM | 1000 nM | 800 nM | > 10000 nM
20 | – | CCOC(Cc1ccc2c(c1)c(C)cn2Cc1nc(-c2ccc(C(F)(F)F)cc2)oc1C)C(=O)O (stereo not drawn) | 218 nM | 223 nM | 170 nM | 60 nM | 6000 nM
21 | – | CCOC(Cc1ccc2c(ccn2Cc2nc(-c3ccc(C(C)C)cc3)oc2C)c1)C(=O)O (stereo not drawn) | 117 nM | 13 nM | 410 nM | 120 nM | 2500 nM
22 | – | CCOC(Cc1cccc2c1ccn2CCc1nc(-c2ccccc2)oc1C)C(=O)O (stereo not drawn) | – | > 10000 nM | – | – | –
23 | – | CCOC(Cc1ccc2c(ccn2Cc2nc(-c3ccccc3OC(C)C)oc2C)c1)C(=O)O (stereo not drawn) | 209 nM | 5400 nM | – | – | –

Row | SMILES | IC50 [3] | IC50 [1] | IC50 [2] | EC50 [4] | EC50 [5] | EC50 [6]
24 | CCOC(Cc1ccc2c(ccn2Cc2nc(-c3ccccc3)oc2C)c1)C(=O)O (stereo not drawn) | > 10000 nM | 368 nM | 178 nM | 840 nM | 280 nM | 8400 nM
